For 17 compounds, IC50 results are on record in PubChem BioAssay AID1645866 (Buhrlage Lab, Dana-Farber Cancer Institute and Novartis …, 2021).

This experiment has as its target Ubiquitin carboxyl-terminal hydrolase 28 (Homo sapiens) (UniProt Q96RU2). The experiment can be described thus: Concentration-response biochemical assay confirming initial hits as inhibitors of ubiquitin-specific protease 28 (AID 1645866). The note with it: purified USP28, ubiquitin-rhodamine fluorescence, 30 min.

As usually defined, the IC50 is the concentration that gives 50% inhibition.

The source made the active and inactive calls.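 How the source made its calls: active means in confirmatory dose-response testing, peak deubiquitinase inhibition of 30% or more; inactive means the rest.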

Ubiquitin carboxyl-terminal hydrolase 28 (Homo sapiens), sequence (Q96RU2 whole entry, looked up): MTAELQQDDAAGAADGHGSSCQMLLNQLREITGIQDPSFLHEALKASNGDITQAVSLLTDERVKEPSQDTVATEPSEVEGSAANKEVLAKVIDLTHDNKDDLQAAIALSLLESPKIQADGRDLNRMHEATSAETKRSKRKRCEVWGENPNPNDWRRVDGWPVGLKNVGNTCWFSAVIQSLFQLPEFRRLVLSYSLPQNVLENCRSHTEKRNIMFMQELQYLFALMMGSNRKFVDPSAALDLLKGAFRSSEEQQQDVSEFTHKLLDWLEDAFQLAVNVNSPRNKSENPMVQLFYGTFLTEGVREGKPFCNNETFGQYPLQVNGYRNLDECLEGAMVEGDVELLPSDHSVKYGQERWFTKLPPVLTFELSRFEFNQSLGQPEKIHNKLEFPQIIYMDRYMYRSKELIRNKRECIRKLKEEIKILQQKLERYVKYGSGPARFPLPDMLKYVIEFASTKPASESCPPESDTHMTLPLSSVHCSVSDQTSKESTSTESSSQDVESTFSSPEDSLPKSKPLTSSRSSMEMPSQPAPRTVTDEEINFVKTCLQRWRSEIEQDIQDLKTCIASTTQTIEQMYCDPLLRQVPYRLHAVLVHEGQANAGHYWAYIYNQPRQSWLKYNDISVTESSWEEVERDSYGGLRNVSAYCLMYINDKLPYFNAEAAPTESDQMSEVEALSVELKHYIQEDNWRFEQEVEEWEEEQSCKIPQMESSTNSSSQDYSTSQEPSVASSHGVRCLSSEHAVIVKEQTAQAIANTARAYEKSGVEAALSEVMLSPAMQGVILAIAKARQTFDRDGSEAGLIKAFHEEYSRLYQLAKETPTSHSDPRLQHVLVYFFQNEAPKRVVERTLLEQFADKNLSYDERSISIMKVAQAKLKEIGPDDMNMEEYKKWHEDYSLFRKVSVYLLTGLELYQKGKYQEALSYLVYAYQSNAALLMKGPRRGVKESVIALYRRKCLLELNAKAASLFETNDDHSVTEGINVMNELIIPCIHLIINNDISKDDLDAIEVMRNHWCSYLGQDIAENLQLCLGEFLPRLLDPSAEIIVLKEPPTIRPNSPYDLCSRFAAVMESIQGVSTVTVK

For `O=C(Nc1cccn(Cc2c(Cl)cccc2Cl)c1=O)c1ccccc1[N+](=O)[O-]`, the IC50 was 4.79 µM.
Turning to `Cc1ccc(NC(=O)Cn2cc(S(=O)(=O)N3CCCC3)ccc2=O)cc1`, the IC50 was 17.2 µM.
In the case of `O=C(/C=C/c1ccc(F)cc1)Nc1ccc2c(c1)OCCO2`, the IC50 was 2.47 µM.
Regarding `O=C(O)C1CCN(Cc2c(-c3ccco3)nc3ccc(Cl)cn23)CC1`, the IC50 was > 50 µM (inactive).
As to `O=[N+]([O-])c1ccc(NCc2ccc(-c3cccs3)s2)nc1`, the IC50 was 2.19 µM.
Regarding `COC(=O)COc1ccc(/C=N/NC(=O)c2ccc(CN3CCc4ccccc4C3)cc2)cc1`, the IC50 was 11.1 µM.
With `COc1cc([C@@H]2c3cc4c(cc3C[C@@H]3COC(=O)[C@H]32)OCO4)cc(OC)c1OC`, the IC50 is 18.7 µM.
As for `Fc1ccc(CN2CCc3nc4cccnc4cc3C2)cc1`, the IC50 is > 50 µM (inactive).
Consider `CO/C=C/C(=O)c1cc2cnc3c(=N)cc(NC(C)=O)c([nH]1)c23`, for which the IC50 is > 50 µM (inactive).
As for `Cc1cc(C#N)c2c(C)ccc(C(C)C)cc1-2`, the IC50 was 21.4 µM.
The same measure for `COc1ccc(OC)c(NC(=O)c2ccc(-n3nnnc3SC)cc2)c1`: 22.6 µM; for `Cc1ccccc1NC(=O)Cn1cc(-c2nc(C3CC3)no2)ccc1=O`: > 50 µM (inactive).
With `Fc1cc(F)c2[nH]cc(-c3nnnn3-c3ccc4ccccc4c3)c2c1` the figure was 22 µM; with `Cc1cccc(NC(=O)c2nc(N3CCSCC3)c3cnn(C)c3n2)c1`, > 50 µM (inactive).
With `O=C(Cn1nc2ccc(C(=O)NCc3ccccc3)cn2c1=O)Nc1ccc2c(c1)OCO2` the figure was 33.6 µM; with `COCCCNC(=O)c1ccc(Cn2c(=O)c3ccccc3n(CC(=O)NC3CCCCC3)c2=O)cc1`, 23.5 µM.
In the case of `COc1ccc2nc(-c3ccc(NC(=O)c4cccc(OC)c4OC)cc3)cn2n1`, the IC50 is 2.43 µM.
